# Measured values published in paper PMC7460887, “Capsaicin-Cyclodextrin Complex Enhances Mepivacaine Targeting and Improves Local Anesthesia in Inflamed Tissues” (International Journal of Molecular Sciences, 2020).
# Where a name gives a salt, the structure may show the parent alone. Read-outs that look alike come from different tables or passages of the source.
# How the values were obtained:
# [1] = cited from earlier work
# [2] = In vitro release, Franz-type vertical diffusion cell; type: physicochemical; conditions: 37 °C, PBS pH 7.4, n = 3
# Procedure: A “Franz-type” vertical diffusion cell system was used to evaluate the in vitro release of CAP, comparing the free (dissolved in 20% ethanolic solution) and complexed drug with HP-β-CD [26]. The diffusion system consists of two compartments: the donor one—containing 1 mL of the sample—and the acceptor compartment, containing 12 mL of buffer (10 mM phosphate buffered saline, pH 7.4) kept at 37 °C, under mild stirring to ensure sink condition. A cellulose membrane (Spectrapore, Los Angeles, 1000 Da molecular exclusion pore) separated the two compartments. Aliquots (200 μL) were withdrawn from the acceptor compartment at fixed intervals (15, 30, […], 60, and 90 min, and every hour for 6 h) and the volume was replaced with fresh medium. CAP was quantified by HPLC, in a Waters Breeze 2 System (Waters, Milford, Massachussets, USA) at 280 nm and 30 °C, using a Luna® C18 (2) reverse phase (25 × 4.6 mm, 5 μm) (Phenomenex, Torrance, California, USA), 30-µL injection volume, phosphoric acid (1:1000 v/v) and acetonitrile (7:3 v:v), at pH 2.4, and 1.0 mL/min flow rate.
# [3] = cited from earlier work; for solubility increment of CAP: at least 10 times greater HP-β-CD concentrations; for Ks with HP-β-CD (from phase solubility study): LA base form
# [4] = DOSY NMR diffusion, complexed fraction and association constant; type: physicochemical
# Procedure: DOSY is an experiment that separates the signals of a mixture of components according to the size and shape of the molecules. DOSY experiments were conducted with the pulse sequence ledbpgp2s, with a time diffusion of 0.06 s. […] The average acquisition time of the experiment was 40 min. The processing program (Dosy Toolbox) was run with data transformed using fn = 32 K. The diffusion coefficient and standard deviation of each species was given by the arithmetic mean of all coefficients of the same species. DOSY allows determination of the association constant (Ka), between guest molecules and CDs. Ka values are inferred from the complexed fraction (Fcomplexed) of the guest molecule, and both values were calculated accordingly to Equations (4) and (5), where Ddrug is the diffusion coefficient of the free drug, Dcomplex is the diffusion coefficient of the complex, Dcyclodextrin is the diffusion coefficient of free CD, and R is the molar concentration of non-complexed CD [25]:(4) Fcomplexed=[Ddrug−Dcomplex]/[Ddrug−Dciclodextrin] (5) Ka=[Ddrug−Dcomplex]/[Ddrug−Dciclodextrin] × R
# [5] = Phase solubility study of CAP with HP-β-CD; type: physicochemical
# Procedure: The effects of HP-β-CD on the solubility of CAP was investigated according to the phase solubility method described by Higuchi and Connors. In this experiment increasing concentrations of CD (0–10 mM) were added to a saturated CAP solution. The solutions were left under magnetic stirring for 48 h (350 rpm and 25 °C). Aliquots of each vial were centrifuged for 10 min (4100× g) and the supernatant was filtered through 0.45 μm (Millipore, Burlington, Massachusetts, USA) and diluted to determine CAP concentration by UV absorption at 280 nm. The phase solubility diagram was obtained by plotting the solubility of CAP, versus the concentrations of HP-β-CD […]. The apparent stability constant (Ks) were calculated by Equation (1), where S0 is the aqueous molar solubility of the drug, taken from the Y intercept of the plot:(1) Ks=slope/S0(1−slope)
# The complexation efficiency (CE) determines the adequate ratio of CDs to ensure maximum solubility of the complexed drug. For the CAP-HP-β-CD complex, CE was calculated from the phase solubility plots, according to Equation (2). The CE values allow drug/CD ratio in the formulation, according to Equation (3):(2) CE=slope/(1−slope) (3) Drug:CD=1/(CE+1)/CE
# [6] = tested on: carrageenan-inflamed mice paw; assay: Analgesia in inflamed tissue, carrageenan-induced hyperalgesia, mechanical allodynia in mice hind paw; type: in vivo, Male Swiss mice; conditions: 2% solution, subplantar injection, 4 h after carrageenan
# Procedure: The antinociceptive effect of the association between mepivacaine and complexed CAP (HP-β-CD-CAP) was evaluated in vivo. A sample of freeze-dried HP-β-CD-CAP was resuspended in 4 mL of mepivacaine hydrochloride solution (MVC) to final concentrations of 1.6 mM (0.05%) CAP and 2% MVC. MVC solution was previously sterilized by filtration 0.22 μm. (Millipore, Burlington, Massachusetts, USA). Male Swiss mice (30–35 g) were obtained from Centro de Bioterismo, University of Campinas, UNICAMP (CEMIB-UNICAMP, Campinas, São Paulo, Brazil) and housed in standard cages under a 12/12 h of light/dark cycle. All experiments were approved by the institutional animal care and use committee of Unicamp, meaning it follows the Brazilian national guideline, which is in line with the National Institutes of Health guide for the care and use of Laboratory animals (protocol # 4402-1).
# The mechanical allodynia was analyzed in mice hind paw by a Dynamic Plantar Aesthesiometer (model 37450, Ugo Basile, Italy). The animals were placed in an elevated cage for 2 h before the test, for setting and training. […] The anesthetic formulations were then applied into the same subplantar region of the right paw of the mice, and the pain threshold was evaluated every 15 min. […] After the mechanical stimulus, the time elapsed until paw withdrawal as well as the applied pressure value were automatically recorded.
# [7] = parameters: method as in PMID 19440843; conditions: pure HP-β-CD 15% m/w; cited from earlier work
# [8] = complexation with HP-β-CD, DOSY-NMR
compound,measurement,setting,value
"COc1cc(CNC(=O)CCCC/C=C/C(C)C)ccc1O [CAP, Capsaicin]",diffusion coefficient (D),[1],4.81 × 10^−10 m^2s^−1
same,time of CAP release,[2],5 h
same,solubility increment of CAP,[3]; at 27 °C,160 times
same,solubility increment of CAP,[3]; at 37 °C,147 times
same,diffusion coefficient (D),[4],4.94 × 10^−10 m^2s^−1
same,improvement of apparent solubility of CAP,[5],up to 20 times
same,"moles of HP-β-CD required per mole of drug to solubilize (D:CD, Equation (3))",[5],4.2 mol
same,solubility at 48 h,"[5]; 25 °C, aqueous with cosolvent or surfactant or cyclodextrin, thermodynamic from solid",2200 µM
"Cc1cccc(C)c1NC(=O)C1CCCCN1C (centres unmarked) [MVC, mepivacaine hydrochloride]",induction of anesthesia in inflamed paw,[6],did not induce anesthesia in mice at any time tested
CCCCN1CCCC[C@H]1C(=O)Nc1c(C)cccc1C [S-bupivacaine],association constant (Ka),[1]; [8],91 M⁻¹
same,complexed fraction (Fcomplexed),[1]; [8],57%
CCCCN1CCCCC1C(=O)Nc1c(C)cccc1C (centres unmarked) [bupivacaine],Ks with HP-β-CD (from phase solubility study),[3],95 M⁻¹
Clc1ccccc1C(c1ccccc1)(c1ccccc1)n1ccnc1 [clotrimazole],molecules of HP-β-CD demanded for optimal complexation,[3],21 molecules
Cc1cccc(C)c1NC(=O)C1CCCCN1C (centres unmarked) [mepivacaine],Ks with HP-β-CD (from phase solubility study),[3],38 M⁻¹
Clc1ccc(COC(Cn2ccnc2)c2ccc(Cl)cc2Cl)c(Cl)c1 (centres unmarked) [miconazole],molecules of HP-β-CD demanded for optimal complexation,[3],12 molecules
CC(C)(C)c1ccc(C(O)CCCN2CCC(C(O)(c3ccccc3)c3ccccc3)CC2)cc1 (centres unmarked) [terfenadine],molecules of HP-β-CD demanded for optimal complexation,[3],4 molecules
hydroxypropyl-β-cyclodextrin [HP-β-CD],diffusion coefficient (D),[1],2.21 × 10^−10 m^2s^−1
same,HP-β-CD concentration above which aggregates start,[3],higher than 12 mM
same,collapse temperature (Tc),[7],−9.5 °C
same,diffusion coefficient (D),[4],2.00 × 10^−10 m^2s^−1
